Results from patent publication US20260328779A1, “METHODS AND COMPOSITIONS FOR THE DIAGNOSIS AND TREATMENT OF IGA NEPHROPATHY” (Beth Israel Deaconess Medical Center, Inc., priority 2022, published 2026).

How the values were obtained:
[1] = system: anti-Tn antibodies; test: Inhibition of anti-Tn antibody binding to Tn(+)matrix beads (fluorescent anti-IgM imaging); conditions: 20 mM preincubation, 30 min on ice; anti-human IgM detection
Description: To investigate whether the interaction of the anti-Tn antibodies to the Tn(+)matrix is Tn antigen-dependent, fluorescent-tagged secondary antibodies were used to image the antibodies bound to the Tn(+)matrix. Strong staining for bound IgM (FIG. 3C, upper panel, green fluorescent) was observed, but no significant staining for either IgG or IgA (FIG. 3C, middle and bottom panels). The IgG and IgA1 levels in the bound material are thus either relatively low or these antigens could be cryptic within complexes and inaccessible in the context of the beads. […]
~50 ml of human sera was mixed with 1 ml of Tn(+)matrix beads (50% slurry in PBS) at 4° C. […] The concentration of eluted protein was determined by BCA assay (Cat #23225, Thermo Fisher Scientific). Each fraction (Input, Flow through (FT), Washes) was proportionally loaded, except elution 10 ml, and analyzed on SDS-PAGE, and stained with Coomassie, or transferred to nitrocellulose membrane (Cat #1704158, Bio-Rad) using Trans-Blot Turbo Transfer System (Bio-Rad). […] After washing 3× with TBST for 10 min, the signals were analyzed on an Amersham™ Imager 600 (GE Healthcare Life Sciences) using SuperSignal™ West Pico chemiluminescent substrate (Cat #34578, Thermo Scientific). […] The beads were washed twice with chilled 1 ml of PBS, and analyzed using a microscope (AMG EVOS FL digital inverted microscope, Fisher Scientific, ×100 magnification). […]

[2] = system: anti-Tn CICs; test: Dissociation of anti-Tn CICs by glycomimetic treatment (BN-APAGE-WB); format: biochemical, human; conditions: 100 mM, 2 h at 4° C.; anti-Tn CICs from IgAN patients
Description: Furthermore, it was tested whether the anti-Tn IgM immune complexes can be dissociated from Tn(+)IgA1 using compounds that mimic the Tn antigen-glycomimetics. For this purpose, the anti-Tn CICs were affinity-purified from the sera of IgAN patients; the anti-Tn CICs were treated with mock, α-methylGalNAc (glycomimetic compound, αGalNAc), or α-methylGlcNAc (control compound, αGlcNAc), followed by BN-APAGE-WB and probing for IgM, and IgA. […] An IgA1 signal was unable to be detected in mock and α-methylGlcNAc-treated samples (FIG. 5F, lane 1 and 3, bottom), indicating the IgA1 epitopes may be buried within the CICs and thus not available in this native page set-up for WB detection.
Samples (~0.1 mg) or for plain serum (1:200 dilution in PBS, […]) run on BN-APAGE were transferred onto activated PVDF membrane (Cat #IPVH00010, EMD Millipore, wet-transfer system, 40 V for 2 h). The membranes were quickly destained with 100% methanol, washed with TBST, and blocked with 5% (w/vol) non-fat milk in TBST for 1 h at RT. […]
For glycomimetic treatment, purified anti-Tn CICs (~0.1 mg) was pretreated with α-methylGalNAc (100 mM), α-methylGlcNAc (100 mM), or mock in PBS for 2 h at 4° C. on a rotator (10 rpm) and the samples were analyzed by BN-APAGE-WB and probed for IgM and IgA.

With `CO[C@H]1O[C@H](CO)[C@H](O)[C@H](O)[C@H]1NC(C)=O` [α-methylGalNAc] the “inhibition of binding of antibodies to the Tn(+)matrix” value [1] was “completely inhibited” and the “dissociation of Tn(+)IgA1 from anti-Tn CICs” value [2] was “caused dissociation of the Tn(+)IgA1 from anti-Tn IgM immune complexes”.
